The text below walks through data of patent publication EP0606747A1, “Tilmicosin and derivatives for treating gram-positive diseases of aquatic species” (ELI LILLY AND COMPANY, priority 1992, dated 1994).

Data set [1] concerns Renibacterium salmoninarum. Kind of data set: In vitro evaluation of tilmicosin against Renibacterium salmoninarum (MIC). The format is cell-based. To be noted: for MIC: Renibacterium salmoninarum, read-out: minimum inhibitory concentration (MIC). On the procedure:
Test 1: In vitro evaluation of tilmicosin against Renibacterium salmoninarum.
A dozen strains of Renibactenum salmoninarum were obtained and cultured in standard procedures. Eight grew successfully and were employed in the evaluation of tilmicosin.
Tilmicosin was evaluated at various concentrations and the minimum inhibitory concentration (MIC) determined for each of the strains. For three of the strains, the MIC was 1 µg/ml; for the remaining five strains, the MIC was 2 µg/ml.

The nature of data set [2]: Test 2: palatability and growth study in Atlantic salmon, medicated diets, four weeks. The format is in vivo, Atlantic salmon (Salmo salar). Particulars: all fish at the end of the four-week study. On the procedure:
Test 2: Palatability and growth studies in Atlantic salmon.
A trial was conducted to determine the palatability and effect on growth of Atlantic salmon (Salmo salar), St. John River strain, of diets containing various concentrations of tilmicosin. Pre-smolt salmon, each weighing about 50 grams, from a stock certified to be free of bacterial kidney disease, were used. The fish were acclimatized for four weeks. During this period, the fish were in tanks maintained with fresh single-pass flow-through well water, 10±2°C., and a photoperiod of 12/12. Water flow rate was adequate to provide a dissolved oxygen concentration of ≧ 5 mg/liter post feeding and under conditions of normal activity provided a dissolved oxygen concentration of ≧ 8 mg/liter. All fish were fed a standard diet. […]
All fish were fed 3× on weekdays and 1× or 2× on weekend days. […] The trial lasted four weeks, and the following parameters were determined: feed intake feed intake as % of body weight weight gain weight gain as % of body weight feed conversion At the end of the four weeks, the fish were sacrificed and tissue from liver, muscle, and kidney analyzed for tilmicosin by an HPLC assay. […] Quantitative determination of tilmicosin was accomplished by reversed-phase HPLC with a phenylsilyl stationary phase and a U.V. absorption detector at 280 nm. […]

Data set [3] can be described thus: Test 3: palatability and growth study in Atlantic salmon, tilmicosin base versus phosphate salt. The format is in vivo, Atlantic salmon (Salmo salar). Particulars: 800 mg/kg of diet (free base equivalent), four weeks; cause of death could not be determined. Here is the method:
Test 3: Palatability and Growth Studies in Atlantic Salmon, Comparing Tilmicosin Base and Phosphate Salt
A trial was conducted to determine the palatability to Atlantic salmon (Salmo salar), St. John River strain, of diets containing either tilmicosin (free base) or tilmicosin phosphate. Pre-smolt salmon, each weighing about 50 grams, from a certified disease free stock, were used. The salmon, 30 per tank and 9 tanks, were acclimatized for about two weeks. During this period and throughout the trial, the tanks were maintained with fresh single-pass flow-through well water, 2 liters per minute, 12 ± 1°C., and the photoperiod was 12/12. During the acclimatization, all fish were fed a standard feed. Thereafter the salmon in three tanks continued to receive the standard diet, to serve as a control. The salmon in three other tanks received a modified diet containing 800 mg of tilmicosin (free base) per kilogram of diet; the salmon in the last three tanks received a modified diet containing tilmicosin phosphate in an amount equivalent to 800 mg of tilmicosin (free base) per kilogram of diet. […] The trial was continued for a four-week period, during which these parameters were evaluated: feed intake feed intake as % of body weight weight gain weight gain as % of body weight feed conversion All surviving fish were euthanized. […]

Converted amounts (≈) assume the structure as drawn. Like-named read-outs stand apart in the source and are kept apart here.

For `CC[C@H]1OC(=O)C[C@@H](O)[C@H](C)[C@@H](O[C@@H]2O[C@H](C)[C@@H](O)[C@H](N(C)C)[C@H]2O)[C@@H](CCN2C[C@H](C)C[C@H](C)C2)C[C@@H](C)C(=O)/C=C/C(C)=C/[C@@H]1CO[C@@H]1O[C@H](C)[C@@H](O)[C@@H](OC)[C@H]1OC` [tilmicosin], the values for the MIC in data set [1] (remaining five of the eight strains) and in data set [1] (three of the eight strains) were 2 µg/mL (≈ 2.3 µM) and 1 µg/mL (≈ 1.15 µM), respectively. The growth entry in data set [1] (lower concentrations down to 0.25 µg/ml) was “dramatic reduction in growth”. In data set [2], the Post-mortem examination entry is “no gross abnormalities”.

tilmicosin phosphate: the mortality entry in data set [3] is recorded as “One fish from the tank receiving tilmicosin phosphate died”.
